Results taken from patent publication US20020137891A1, “Protein scaffold and its use to multimerise monomeric polypeptides” (priority 1999, published 2002).

Assays:
[1] = system: anti-GroEL antibodies; test: Anti-GroEL antibodies binding by ELISA; parameters: species or system rabbit; conditions: direct and indirect ELISA, different concentrations of antibodies, FIG. 6
Description: Anti-GroEL antibodies binding by ELISA. The same amount of proteins (1 μg) were coated as described above. […] ELISAs were developed as described above.

[2] = molecular target: T1, pig heart mitochondrial malate dehydrogenase (mtMDH) (Sus scrofa, UniProt P00346); test: In vitro refolding and aggregation protection of heat- and dithiothreitol-denatured mtMDH; type: biochemical
T1 construct: pig heart mitochondrial malate dehydrogenase (mtMDH; Boehringer-Mannheim); purchased Boehringer-Mannheim; host or cells: pig heart
T1 sequence (P00346 25-338): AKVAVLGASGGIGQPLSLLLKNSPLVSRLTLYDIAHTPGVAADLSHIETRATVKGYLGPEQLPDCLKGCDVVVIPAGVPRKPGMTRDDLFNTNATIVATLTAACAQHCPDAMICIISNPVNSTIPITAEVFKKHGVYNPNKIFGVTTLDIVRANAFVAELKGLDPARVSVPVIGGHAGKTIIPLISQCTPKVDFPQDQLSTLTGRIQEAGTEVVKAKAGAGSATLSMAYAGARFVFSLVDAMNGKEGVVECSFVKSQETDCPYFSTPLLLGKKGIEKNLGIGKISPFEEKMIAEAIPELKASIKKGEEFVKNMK
Description: In vitro refolding experiments. Refolding assays of pig heart mitochondrial malate dehydrogenase (mtMDH; Boehringer-Mannheim) and aggregation protection were carried out essentially as described (Peres Ben-Zvi, A. P., Chatellier, J., Fersht, A. R. & Goloubinoff, P. (1998) Proc. Natl. Acad. Sci. U.S.A. 95, 15275-15280). The concentrations of MC7 used were between 8-16 μM (reporter to protomer).

[3] = system: E. coli SV2 groEL44; test: In vivo complementation of thermosensitive groEL mutant at 43° C., strain SV2; type: cell-based; conditions: pJC plasmid, relative to growth at 30° C.
Description: In vivo complementation experiments. Complementation experiments were performed by transforming electro-competent SV2 or SV6 cells with the pJC series of expression vectors and plating an aliquot of the transformation reactions directly at 43° C. The percentage of viable cells relative to the growth at 30° C. was determined. A representative number of clones which grew at 43° C. were incubated in absence of any selective markers at permissive temperature. After prolonged growth the loss of the pJC plasmids and the ts phenotype were verified. Each experiment was performed in duplicate. Plasmids carrying no groE genes or encoding the GroE proteins were used as negative or positive controls, respectively.

[4] = system: bacteriophage T4 (T4D0); test: Growth (plaque formation) of bacteriophage T4 at 37° C. in transformed wild-type and groEL mutant strains; type: cell-based, E. coli; parameters: key: +++: normal plaque-forming ability relative to wild-type groEL^+ strain, in terms of both number and size; ++: 5-fold fewer plaques relative to wild-type groEL^+ strain, or both; 10-fold fewer plaques, or plaque size reduced relative to wild-type groEL^+ strain, or both; +/−: 10^2-fold fewer plaques and plaque size reduced relative to wild-type groEL^+ strain; no visible plaques (<10^−4); conditions: pJC plasmid
Excerpt: Bacterial and bacteriophage strains. The E. coli strains used in this study were: C41(DE3), a mutant of BL21(DE3) capable of expressing toxic genes (Miroux, B. & Walker, J. E. (1996) J. Mol. Biol. 260, 289-298); SV2 (B178groEL44), SV3 (B178groEL59) and SV6 (B178groEL673): isogenic strains carrying temperature-sensitive alleles of groEL; SV1(=B178) (Georgopoulos, C., Hendrix, R. W., Casjens, S. R. & Kaiser, A. D. (1973) J. Mol. Biol. 76, 45-60), AI90 (ΔgroEL::kan^R) [pBAD-EL] (Ivic, A., Olden, D., Wallington, E. J. & Lund, P. A. (1997) Gene 194, 1-8), and TG1 (Gibson, T. J. (1984) Ph.D. thesis, University of Cambridge, U.K). Bacteriophage λb2cI (Zeilstra-Ryalls, J., Fayet, O., Baird, L. & Georgopoulos, C. (1993) J. Bacteriol. 175, 1134-1143) was used according to standard methods (Arber, W., Enquist, L., Hohn, B., Murray, N. E. & Murray, K. (1983) in Lambda II., ed. R. W. Hendrix, J. W. r., F. W. Stahl and R. A. Weisberg (Cold Spring Harbor Laboratory, Cold Spring Harbor, N.Y.), pp. 433-466); plaque formation was assayed at 30° C. T4D0, a derivative of bacteriophage T4 (Zeilstra-Ryalls, J., Fayet, O., Baird, L. & Georgopoulos, C. (1993) J. Bacteriol. 175, 1134-1143), was used according to standard methods (Karam, J. D. (1994) Molecular biology of bacteriophage T4. (American Society for Microbiology, Washington, D.C.)); plaque formation was assayed at 37° C.
Bacteriophage λ requires the chaperonins GroES and GroEL for protein folding during morphogenesis; bacteriophage T4 requires GroEL and Gp31, the latter being encoded by the bacteriophage genome (Zeilstra-Ryalls, J., Fayet, O. & Georgopoulos, C. (1991) Annu. Rev. Microbiol. 45, 301-325). Nine groE alleles which fail to support λ growth have been sequenced (Zeilstra-Ryalls, J., Fayet, O., Baird, L. & Georgopoulos, C. (1993) J. Bacteriol. 175, 1134-1143). We examined the ability of MC7, over-expressed from the constitutive tet promoter on a high-copy number vector (see FIG. 2), to complement three mutant groEL alleles for plaque formation by λ (b2cI) at 30° C. (Table 3) and T4 at 37° C. (Table 4).

[5] = system: SV2 [pBADGroES]; conditions: SV2 over-expressing GroES from pBAD
[6] = molecular target: GroES (Escherichia coli, UniProt P0A6F9); conditions: read-out: apparent dissociation constant for the formation of the GroEL-GroES complex; cited from earlier work
Sequence of GroES (P0A6F9 whole entry): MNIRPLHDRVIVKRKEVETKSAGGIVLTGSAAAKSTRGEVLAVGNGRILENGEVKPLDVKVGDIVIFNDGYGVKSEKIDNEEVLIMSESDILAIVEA

## GroEL (1-548): E. coli molecular chaperone, 14 subunits of 57.5 kD in two seven membered rings [reference compound]
[1]
  Detection by antibodies specific to GroEL: comparable detection levels
[2]; after 120 min, FIG. 7c
  yield of refolded mtMDH: 6 nM
[2]; reactivation at 25° C., chaperone alone, FIG. 7b
  rate of refolding of denatured mtMDH: 0.04 nM/min
[3]
  Relative colony forming ability, SV2 groEL44: 1
[4]
  Growth of bacteriophage T4, SV1 (groEL^+): +++
  Growth of bacteriophage T4, SV2 groEL44: +++
  Growth of bacteriophage T4, SV3 groEL59: +++
  Growth of bacteriophage T4, SV6 groEL673: +++
[5]
  Plaque size and number: do not completely eliminate them
[6]
  Kd: 1000 nM
